The test system of assay [1] is peritoneal cavity macrophages. Briefly: Aggregometry of isolated peritoneal macrophages. Type of assay: cell-based, mouse. The settings on record: 37° C., 400 rpm. On the procedure: Macrophages were isolated by peritoneal lavage as described above with the use of 2 mM EDTA containing HBSS instead of PBS. Macrophages were centrifuged at 300 g for 5 min in a 50-ml polystyrene tube. The pellet (with approximately 100 μl of fluid remaining with 3×10^6 cells) was diluted in HBSS containing 2 mM Ca^2+ to a final volume of 400 μl. It was then transferred to a aggregometry cuvette, which was warmed to 37° C. and continuously stirred (400 rpm). Light transmission was recorded on a 700 Whole Blood/Optical Lumi-Aggregometer (Chrono-log) and was expressed in arbitrary units with buffer representing 100% transmission and washed macrophage suspension 0% transmission, respectively. Agonists and calcium were added to reach a Ca^2+ concentration of 4 mM total or 2 mM free calcium in a buffer containing 2 mM EDTA. The preparation of platelet aggregometry was performed as previously described (53). Washed platelets (50 μl with 5×10^5 platelets per microliter) were diluted into 110 μl of Tyrode-HEPES buffer containing 2 mM Ca^2+ and 100 μg/ml human fibrinogen. Agonists (ATP, thrombospondin) were added at the indicated concentrations to the continuously stirred platelet suspension. Murine neutrophils were isolated from the bone marrow of wild-type C57Bl/6, mice as previously described (46). Briefly, bone marrow was collected from the femurs and tibias of euthanized mice, and neutrophils were isolated using a discontinuous Percoll gradient consisting of a Percoll solution (9 ml of Percoll and 1 ml 10× of HBSS) diluted to 72%, 64%, and 52% in 1×HBSS. Following centrifugation, the neutrophil band was removed and washed in HBSS. Cell pellets were resuspended in HBSS containing either 2 mM Ca2^+ or EDTA. Aggregometry was performed as described above.

Assay [2] relates to Gata6+ cavity macrophages. The experiment in a line: Open-pouch intravital microscopy: cavity macrophage recruitment/aggregation at transmesothelial laser injury. Format: in vivo, mouse. Conditions: for number of macrophages attaching/aggregating at the injury (normalized macrophage count): 30 min post transmesothelial laser injury, intraperitoneal treatment 20 min before. Here is the method: The following neutralizing antibodies (versus isotype controls) and reagents were intraperitoneally tested for their effect on macrophage recruitment: anti-mouse CD18 (100 μg per mouse, GAME-46, BD Pharmingen)+anti-mouse CD29 (100 μg per mouse, HM β31-1, BD Pharmingen) versus isotype rat IgG1, κ (100 μg per mouse, BioXcell)+hamster IgG (100 μg per mouse, eBioscience); anti-mouse CD162 (100 μg per mouse, 4RA10, BD Pharmingen) versus isotype rat IgG1 (100 μg per mouse, eBioscience); anti-human CD9 (10 μg per mouse, ALB 6, Santa Cruz) versus isotype mouse IgG1 (BD Biosciences). Heparin (Sandoz) was diluted in sterile saline to reach final dose of 100-1000 U per mouse. Argatroban (Sigma-Aldrich) was dissolved in DMSO at 20 mg/ml and diluted with saline to reach a final concentration of 300 μg per mouse. Hirudin (Multiplate Hirudin Blood Tube, Roche) was dissolved in saline and injected intraperitoneally at a dose of 1 tube per mouse. Polyinosinic acid (poly(I)) and polycytidylic acid (poly(C)) were purchased as potassium salt (Sigma-Aldrich) and dissolved in double-distilled water according to manufacturer's instructions to 5 mg/ml and 20 mg/ml, respectively. Immediately before experiments, the poly(C) stock solution was diluted with double-distilled water to a final concentration of 5 mg/ml. Both poly(I) and poly(C) were then diluted with saline to reach a final dose of 250 μg per mouse. A total of […] Anti-mouse Marco antibody (ED31, Biorad MCA1849) versus rat IgG1 Isotype control (eBRG1, eBioscience 16-4301-85) was injected intraperitoneally in a total volume of 140 μl PBS per mouse. A volume of 100 μl anti-mouse thrombocyte depletion serum (Cedarlane, CLAD31440) versus normal rabbit serum (Cedarlane, CLSD403) was injected intra venously 24 hours before imaging.
Mice used for IVM were 8-10 weeks old weighted an average of 20 g. Mice in each experiment were of the same sex. If not specified otherwise, mice were generally treated pharmacologically or with neutralizing antibodies 20 min before imaging. Mice were anesthetized with a mixture of ketamine hydrochloride (200 mg/kg, Rogar/SBT) and xylazine hydrochloride (10 mg/kg, MTC Pharmaceuticals). After anesthesia, the tail vein was cannulated for administration of additional anesthetic, antibodies, or other reagents in certain experiments.
The pouch model IVM (FIG. 1) was prepared with the mouse in supine position. Thermal support was given with a heated stage to maintain 37° C. body temperature. The fur and skin above the ventral abdominal wall were aseptically cleaned with 70% ethanol and then removed. Care was taken not to open the peritoneal cavity. If the peritoneal cavity was accidentally opened, the mouse was immediately euthanized. Staining antibody or dye was intraperitoneally injected with a 28G needle in midline about 10 mm above the symphysis. After withdrawing the needle, a suture was placed to seal the hole caused by the injection. This suture was then used to immobilize a part of the peritoneum onto the coverslip. For this, the mouse was placed in a semi-prone position. Placing a cotton tip with slight top to bottom pressure helped to further increase imaging stability yet preserved a connection between the imaging pouch and peritoneal cavity so that peritoneal fluid movement was preserved. The closed pouch was prepared by applying more pressure on the cotton tip which allowed us to separate the pouch from the peritoneal cavity in terms of fluid movement. After IVM, all mice were immediately euthanized.
Images were exported as uncompressed .tif files and analyzed using ImageJ (55). Tracking was generally performed in an automated fashion using the TrackMate plugin (56). The cell shown in FIG. 1J was tracked manually. Cell counts and injury size was measured manually in ImageJ. Three-dimensional visualizations and volume quantifications were performed in Imaris software. […]

Assay [3] concerns macrophage disappearance reaction. The settings on record: intraperitoneal administration; hypersensitivity reaction or Escherichia coli; cited from earlier work.
For assay [4], the system named is cells isolated from abdominal cavity (peritoneal fluid sample). The experiment in a line: Aggregometry of human peritoneal fluid cells. Format: cell-based. Conditions: ATPgs 100 uM, CaCl 2 mM, Poly(I)/Poly(C) 2 mg/ml; phase contrast. On the procedure:
Cells were isolated from abdominal cavity by laparotomy or laparascopy, lavaged with 200 ml saline and stored on ice. The cell samples were transferred through 70 um filters into 50 ml falcon tubes and spun at 300 g for 5 min at 4 degree. The pellet was resuspended in HBSS without Ca and without Mg. For aggregometry cells were exposed to: EDTA final concentration 2 mM; ATPgs final concentration 100 uM; CaCl final concentration 2 mM; and Poly(I)/Poly(C) final concentration 2 mg/ml. The final volume of 100 uL was attained with HBSS. Cells from one patient were exposed to three different conditions: EDTA alone (negative control); ATP/Poly(C); ATP/Poly(I). Image with phase contrast was captured (FIG. 14).

For assay [5], the system named is focal thermal injury of the parietal peritoneum. The experiment in a line: Peritoneal focal thermal injury healing. Type of assay: in vivo, mouse. The settings on record: 3 days after injury; wound area and mesothelial coverage; poly(C) control. Here is the method:
Abdominal-wall-flap IVM was used to visualize the mesothelium and epigastric blood vessels (FIG. 2A, FIG. 3, F-I). Mice were placed in supine position on heated stage to maintain 37° C. body temperature. The fur and skin above the ventral abdominal wall were removed and then aseptically cleaned with 70% ethanol. Staining antibodies (anti-mouse podoplanin and anti-mouse F4/80 as described above) were injected. After mice were incubated for 10 min on a heated stage, the peritoneum was incised with an inverted U-shaped incision ranging from directly below the xyphoid process to the inguinal ligament on both sides. This created a perfused flap of peritoneum and the rectus abdominis muscles. The flap was washed with 1 ml of PBS and placed directly on the glass coverslip of the heated stage for imaging of abdominal wall or epigastric blood vessels.
(§1) For surgical procedures, mice were 8-12 weeks old with a body weight >20 g. Mice in each experiment were of the same sex. Mice were treated before surgery with poly(I), poly(C), liposomes, or diphtheria toxin as described above. Anesthesia was induced and maintained with isoflurane. Eye lubricant was topically applied and buprenorphine (0.1 mg/kg) was subcutaneously administered.
The peritoneal focal thermal injury was adapted from the focal thermal liver injury that was previously described (46). The skin was incised in midline. […]

Assay [6] relates to focal thermal lesions of liver. Briefly: Focal thermal hepatic injury healing. Format: in vivo, mouse. The settings on record: 7 d after injury. On the procedure:
Intravital liver imaging was performed as previously described (45). Exposed tissues were visualized with a Leica SP8 DIVE inverted microscope equipped with 4 Tune, a tunable in vivo detection system and a multiphoton light path. All images shown here were acquired using a HC FLUOTAR L 25×/0.95 W objective with water as immersion medium and 2× digital zoom. Fluorescent moieties were excited with a tunable InSight ×3 ultrafast laser (Spectra-Physics) at 800-1000 nm. Signal was detected using external, extremely sensitive non-descanned hybrid detectors. Second harmonic generation by collagen was recorded by tuning the detector to excitation wavelength divided by two ±20 nm. Leica LAS X software was used to drive the microscope.
as §1
Focal thermal injury in the liver was performed as previously described (49). In brief, a mini-laparotomy was made just below the xyphoid to expose the liver. Three focal injuries were induced on the surface of the liver using the tip of a heated 30G needle mounted on an electrocautery device. […]

A further assay relates to peritoneal adhesions. Briefly: Peritoneal-button injury model of post-surgical peritoneal adhesions. Format: in vivo, mouse. On the procedure:
as §1
For the peritoneal button injuries, skin was incised in midline. The peritoneal cavity was accessed through midline laparotomy. Standardized lesions were induced as previously described (47). In brief, a small portion of the peritoneum was grasped and ligated at its base using 4-0 Prolene suture (Ethicon), creating a standardized peritoneal button. This was repeated for a total of four buttons, one in each quadrant. Finally, peritoneum and skin were sutured with 6-0 Prolene (Ethicon) running suture.
Prior to sacrifice, mice were anesthetized (10 mg/kg xylazine hydrochloride and 200 mg/kg ketamine hydrochloride). Laparotomies were performed in an inverted U-shape. Adhesion were scored based on their tensile strength and vascularization (Table 2) as previously described (51). The animal was subsequently euthanized and perfused with 2 mM EDTA and 4% PFA containing PBS. Peritoneal buttons/adhesions were excised and post-fixated in 4% PFA containing PBS for 2-4 hours. Tissue staining and clearing was performed as previously described (52). […] Then the biopsies were incubated with fluorescently conjugated monoclonal antibodies for 1-4 days at 4° C. on a rotation device. […] Signal was detected using external, non-descanned hybrid detectors. Second harmonic generation by collagen was recorded by tuning the detector to excitation wavelength divided by two ±20 nm. […]
Mouse peritoneal lavage was performed in anesthetized animals by injection and aspiration of three times 5 ml of sterile ice-cold PBS containing 2 mM EDTA into the peritoneal cavity and subsequent retrieval. […] Samples were run using BD FACS Canto flow cytometer and analyzed using FlowJo software (Tree Star). […]

The mark [7] stands for this setting: intravital imaging following poly(I) administration.

As for `O=C(O)CN(CCN(CC(=O)O)CC(=O)O)CC(=O)O` [EDTA], the “macrophage aggregation in vitro” value in assay [1] is “inhibited”.

`Nc1ncnc2c1ncn2[C@@H]1O[C@H](COP(=O)(O)OP(=O)(O)OP(=O)(O)O)[C@@H](O)[C@H]1O` [adenosine triphosphate]: the “macrophage aggregation in vitro” value in assay [1] was “accelerate macrophage aggregation”.

`CC1CNc2c(cccc2S(=O)(=O)N[C@@H](CCCNC(=N)N)C(=O)N2CC[C@@H](C)C[C@@H]2C(=O)O)C1` (some centres unmarked) [argatroban, Argatroban]: the “number of macrophages attaching/aggregating at the injury (normalized macrophage count)” value in assay [2] is reported as “did not replicate this effect”.

Take Heparin: the “number of macrophages attaching/aggregating at the injury (normalized macrophage count)” value in assay [2] is given as “significantly reduced the number of attaching cells”. Besides, the macrophage disappearance reaction entry in assay [3] is reported as “inhibit the macrophage disappearance reaction”.

In the case of Hirudin, the “number of macrophages attaching/aggregating at the injury (normalized macrophage count)” value in assay [2] was “did not replicate this effect”.

For the molecule Polycytidylic acid [Poly(C)], the “aggregates of human peritoneal fluid cells” value in assay [4] was “large aggregate observed”.

Polyinosinic acid [poly(I)]: the “number of macrophages attaching/aggregating at the injury (normalized macrophage count)” value in assay [2] was “significantly decreased macrophage aggregation”. In assay [2] (setting [7]), the “initial adhesion to the wound” value is reported as “left relatively intact” and the “macrophage-macrophage aggregate formation over time” value was “significant decrease”. Further, the “macrophage aggregation in vitro” value in assay [1] is recorded as “prevent macrophage aggregation in vitro”. The “healing of focal thermal injury of the parietal peritoneum” value in assay [5] was “prolonged healing”. In assay [6], the “healing of focal thermal lesions of liver” value is on record as “similarly affected”. For the same molecule, the “reduction of cavity macrophage numbers in the peritoneal lavage after surgery” value in the assay with peritoneal adhesions (3 hours post-surgery, flow cytometry) was “only partially inhibited”. The “recruitment of cavity macrophage aggregates from the peritoneal fluid to the buttons” value in the assay with peritoneal adhesions (within 3 hours post-surgery) was “could be reduced”. Moreover, the “number and tenacity of peritoneal adhesions” value with peritoneal adhesions (within 7 days post-surgery) is recorded as “significantly reduced”. Further, the “aggregates of human peritoneal fluid cells” value in assay [4] is recorded as “no aggregates”.

(Values after patent US20240101664A1, “TREATMENT OF PERITONEAL, PLEURAL, AND PERICARDIUM ADHESIONS” (UTI LIMITED PARTNERSHIP, priority 2020, published 2024).)
